{"source": "the METLIN SMRT retention time set (Domingo-Almenara et al. 2019)", "data": [{"assay": "gradient 5% acetonitrile 3 min, to 50% in 2 min, to 85% in 15 min, held 3 min, 100 µL/min", "settings": "column: Zorbax Extend-C18 2.1 x 50 mm; eluents: water / acetonitrile, 0.1% formic acid", "how_it_was_run": "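The mobile phases were water and acetonitrile, each with 0.1% formic acid, pumped at 100 μL/min through a Zorbax Extend-C18 column (2.1 × 50 mm, 1.8 μm). Pure standards were injected as mixtures of ~100 molecules and detected by a quadrupole time-of-flight mass spectrometer in positive and negative ionization mode. Retention time came from computationally picked adduct peaks, each inspected by hand.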", "units": {"RP-LC retention time": "s"}, "values": [{"compound": "CCN(CC)CCNc1ncnc2onc(-c3ccc(Cl)cc3)c12", "RP-LC retention time": 664}, {"compound": "CCCCCn1c(CN(C)C(=O)c2ccco2)nc2ccccc21", "RP-LC retention time": 700}, {"compound": "CCOc1ccc(CN2CCC3(CC2)CC(O)CCO3)cc1", "note": "(stereo not given)", "RP-LC retention time": 593}, {"compound": "CCOC(=O)C1CCN(C(=O)c2ccc(-c3nc4ccccc4n(CC(C)C)c3=O)cc2)CC1", "RP-LC retention time": 1060}, {"compound": "O=C(NCc1nnc(SCc2c(F)cccc2Cl)o1)c1cccc(C(F)(F)F)c1", "RP-LC retention time": 933}, {"compound": "CCn1cc(-c2nc(CC(=O)NC3CCCCCC3)cs2)c2cccnc21", "RP-LC retention time": 1050}, {"compound": "O=C(NCc1csc(-c2ccccc2)n1)[C@H]1CCCN1C(=O)COc1ccc(Cl)cc1", "RP-LC retention time": 861}, {"compound": "CCOC(=O)c1cccc(Nc2nc(C(=O)OCC)nc3ccccc23)c1", "RP-LC retention time": 870}, {"compound": "CCNC(=O)c1ccc2c(c1)CCCN2S(=O)(=O)CC", "RP-LC retention time": 709}, {"compound": "Cc1cc2nn(CC(=O)Nc3cc(F)cc(F)c3)c(=O)n2c(Nc2ccccc2)n1", "RP-LC retention time": 1040}, {"compound": "O=C(NCc1ccccc1)N1CCC(Nc2cccnc2)C1", "note": "(stereo not given)", "RP-LC retention time": 580}, {"compound": "Cc1ncn(CC(=O)Nc2ccc(F)cc2F)c(=O)c1C", "RP-LC retention time": 642}, {"compound": "O=C(C1CC1)N1CCc2sc(S(=O)(=O)NCc3ccccc3F)cc2C1", "RP-LC retention time": 815}, {"compound": "CCOc1nc2ccccc2nc1N1CCCC(C(=O)NCc2cccnc2)C1", "note": "(stereo not given)", "RP-LC retention time": 684}, {"compound": "CCOc1ccc(-c2cc3c(=O)n(Cc4nc(-c5ccc(C)cc5)no4)ncn3n2)cc1", "RP-LC retention time": 784}, {"compound": "COC(=O)C(NC(=O)Nc1ccc(-c2nc(-c3ccccc3)co2)cc1)c1ccccc1", "note": "(stereo not given)", "RP-LC retention time": 1090}, {"compound": "Cc1ccccc1C1CCCN1C(=O)c1c(Cl)cnn1C", "note": "(stereo not given)", "RP-LC retention time": 892}, {"compound": "Cn1c(-c2ccccc2)nn(CCNC(=O)C2COc3ccccc3O2)c1=O", "note": "(stereo not given)", "RP-LC retention time": 702}, {"compound": "CCCCC(=O)Nc1ccc2nc(N3CCN(c4ccccc4)CC3)cc(C(=O)O)c2c1", "RP-LC retention time": 672}, {"compound": "O=C(Cn1nc(-c2nc(-c3ccc(Cl)cc3)no2)ccc1=O)N1CCCC1", "RP-LC retention time": 848}, {"compound": "Cc1cc(C)c(S(=O)(=O)N(CC(=O)N2CCNCC2)CC2CCCO2)cc1C", "note": "(stereo not given)", "RP-LC retention time": 704}, {"compound": "O=C(Nc1ccccc1)C1CC(=O)N(c2ccc3c(c2)CCN3C(=O)C2CCC2)C1", "note": "(stereo not given)", "RP-LC retention time": 792}, {"compound": "Cc1ccc(S(=O)(=O)N2CCC(CCNC(=O)NCC(C)C)CC2)cc1", "RP-LC retention time": 877}, {"compound": "Cc1cc(C)cc(NC(=O)CN2C(=O)COc3ccc(C(=O)N4CCCC4)cc32)c1", "RP-LC retention time": 773}, {"compound": "O=C(Nc1cccc(N2CCCS2(=O)=O)c1)Nc1cccs1", "RP-LC retention time": 696}, {"compound": "Cc1cc(=O)n(CC(=O)Nc2cc(C)on2)c(N2CCc3ccccc3C2)n1", "RP-LC retention time": 699}, {"compound": "FC(F)c1nc2ccccc2n1-c1nc(N2CCOCC2)nc(N2CCOCC2)n1", "RP-LC retention time": 938}, {"compound": "CCCn1cnc2cc(CNC(=O)c3ccc(Cl)c(Cl)c3)ccc21", "RP-LC retention time": 683}, {"compound": "CCOC(=O)c1noc2nc(C)nc(NCc3ccc(OC)cc3)c12", "RP-LC retention time": 1010}, {"compound": "CC1CCN(C(=O)Cn2nc3nc(Nc4ccc(F)cc4)ccn3c2=O)CC1", "RP-LC retention time": 754}, {"compound": "Cc1oc(-c2ccc(OC(C)C)cc2)nc1CN(c1ccccc1)S(=O)(=O)c1cccs1", "RP-LC retention time": 1290}, {"compound": "COC(=O)c1cc(S(=O)(=O)N2CCCC2C(=O)Nc2ccc(C#N)cc2)cn1C", "note": "(stereo not given)", "RP-LC retention time": 841}, {"compound": "COCc1nc2nccc(-c3ccccc3)n2n1", "RP-LC retention time": 672}, {"compound": "CCCc1nc(NCc2cc(OC)ccc2OC)ncc1C(=O)O", "RP-LC retention time": 863}, {"compound": "Cc1ccccc1Oc1nccn2c(=O)n(CC(=O)Nc3ccc(F)cc3)nc12", "RP-LC retention time": 838}, {"compound": "CCC(C)NC(=O)c1cc(-c2ccc(F)cc2)cn1C", "note": "(stereo not given)", "RP-LC retention time": 981}, {"compound": "O=S(=O)(c1cccc2nsnc12)N1CCc2nc(-c3ccccc3)ncc2C1", "RP-LC retention time": 1000}, {"compound": "Cn1c(CNC(=O)CSc2nnc(-c3ccc4c(c3)OCO4)o2)nc2ccccc21", "RP-LC retention time": 1020}, {"compound": "CCn1c(C)c(CN2CCC(C(=O)N3CCN(c4ccccc4F)CC3)CC2)c2ccccc21", "RP-LC retention time": 729}, {"compound": "CCCN1C(=O)Cc2ccccc2C1C(=O)NCc1cccs1", "note": "(stereo not given)", "RP-LC retention time": 758}, {"compound": "CCc1nc(N)n(CC(=O)NCc2ccc(F)cc2)c(=O)c1C", "RP-LC retention time": 634}, {"compound": "COc1ccc2c(c1)OC1(C)CC2C(S(=O)(=O)c2ccc(C)c(C)c2)C(=O)N1", "note": "(stereo not given)", "RP-LC retention time": 934}, {"compound": "c1cc(-c2noc(C3CCOCC3)n2)ccc1OC1CNC1", "RP-LC retention time": 640}, {"compound": "COCC1(O)CCOC2(CCN(Cc3ccc(C#N)cc3)CC2)C1", "note": "(stereo not given)", "RP-LC retention time": 578}, {"compound": "COCC(C)(O)CNS(=O)(=O)c1ccc(F)cc1C", "note": "(stereo not given)", "RP-LC retention time": 674}, {"compound": "CCCCC(=O)N1CCCN(C2=NS(=O)(=O)C(c3ccc(C)c(C)c3)=C2C)CC1", "RP-LC retention time": 886}, {"compound": "O=C(c1ccco1)N1CCC(O)(c2ccccc2)[C@H](N2CCCC2)C1", "note": "(stereo not given in full)", "RP-LC retention time": 555}, {"compound": "CCn1cc(-c2ccncc2)cc1C(=O)NCc1ccccc1Br", "RP-LC retention time": 682}, {"compound": "CCN(CC)c1ccc(NC(=O)C2CCCN(S(=O)(=O)c3cn(CC)cn3)C2)c(C)c1", "note": "(stereo not given)", "RP-LC retention time": 578}, {"compound": "Cc1sc2ccn(CC(C)C)c(=O)c2c1C(=O)NCCN1CCN(C)CC1", "RP-LC retention time": 574}, {"compound": "CN1C(=O)c2cc(C(=O)NCCCN3CCc4ccccc4C3)nn2CC1(C)C(=O)NC1CCCC1", "note": "(stereo not given)", "RP-LC retention time": 623}, {"compound": "CC1CCN(c2ncc3c(n2)CCC(C(=O)NCCc2cccnc2)C3)CC1", "note": "(stereo not given)", "RP-LC retention time": 598}, {"compound": "CC1CCC2(CC1)NC(=O)N(CC(=O)NCc1ccc(F)cc1)C2=O", "note": "(stereo not given)", "RP-LC retention time": 801}, {"compound": "O=C(Cn1nc(N2CCSCC2)c2ccccc2c1=O)Nc1ccccc1C(F)(F)F", "RP-LC retention time": 979}, {"compound": "Cc1ccc(NS(=O)(=O)c2cc(-c3[nH]ncc3C(=O)N3CCOCC3)oc2C)c(F)c1", "RP-LC retention time": 701}, {"compound": "CCN1CCN(C(=O)c2nc(N(CC)CC)c3c(C)cc(C)nc3n2)CC1", "RP-LC retention time": 550}, {"compound": "COC(=O)c1c(C)[nH]c(C(=O)N2CCC(CC(=O)NCCN3CCOCC3)CC2)c1C", "RP-LC retention time": 584}, {"compound": "COc1cccc(-c2cc3n(n2)CCCN(Cc2cccnc2)C3)c1", "RP-LC retention time": 526}, {"compound": "CCc1ccc(NC(=O)C2CCN(S(C)(=O)=O)c3ccccc3O2)cc1", "note": "(stereo not given)", "RP-LC retention time": 912}, {"compound": "Cn1cc(C(=O)NCc2ccccc2)c(S(=O)(=O)N2CCSCC2)n1", "RP-LC retention time": 834}, {"compound": "CC(C)NC(=O)N1CCCN(Cc2cccs2)CC1", "RP-LC retention time": 564}, {"compound": "Cc1ccc(-c2csc(-c3cccn3CC(=O)NCC3CCCO3)n2)cc1", "note": "(stereo not given)", "RP-LC retention time": 1020}, {"compound": "COCCCNC(=O)c1cc2n(n1)CCCN(Cc1ccc(F)cc1)C2=O", "RP-LC retention time": 697}, {"compound": "O=C(c1nc2ccccc2s1)N(Cc1ccsc1)Cc1ccco1", "RP-LC retention time": 1110}, {"compound": "O=c1ccc(-c2ccc3c(c2)OCO3)nn1CCc1nc(-c2ccncc2)no1", "RP-LC retention time": 730}, {"compound": "Cc1cc(N2CCCC2)nc(N2CCN(C(=O)c3ccccc3Br)CC2)n1", "RP-LC retention time": 579}, {"compound": "CC(C)(C)NC(=O)c1cc2c(s1)N(CC1CC1)CCCC2", "RP-LC retention time": 1200}, {"compound": "Cc1ccc(C)c(NC(=O)N2CCC(OC3CCN(S(C)(=O)=O)CC3)CC2)c1", "RP-LC retention time": 771}, {"compound": "CC(C)NC(=O)c1ccc(OCC2CCN(C(=O)C3CCCO3)CC2)cc1", "note": "(stereo not given)", "RP-LC retention time": 697}, {"compound": "Cc1nc(N2CCN(c3ccccn3)CC2)nc2c1C(=O)CC(C)C2", "note": "(stereo not given)", "RP-LC retention time": 652}, {"compound": "CC(C)OCCCNC(=O)c1nnc(-c2ccc(S(=O)(=O)N3CCCCC3)cc2)o1", "RP-LC retention time": 917}, {"compound": "COC(=O)C1=CN(c2cccc(OC)c2)c2cc(Br)ccc2S1(=O)=O", "RP-LC retention time": 942}, {"compound": "COc1ccccc1N1CCN(S(=O)(=O)c2cc(-c3cc(C(F)(F)F)on3)sc2C)CC1", "RP-LC retention time": 1300}, {"compound": "Cc1ccn2c(NC(=O)c3cccc(Cl)c3)c(-c3ccccc3)nc2c1", "RP-LC retention time": 682}, {"compound": "O=C(NCC1CCN(S(=O)(=O)C2CC2)CC1)c1ccccn1", "RP-LC retention time": 652}, {"compound": "O=C(C1=CN(c2ccccc2F)c2cc(F)ccc2S1(=O)=O)N1CCOCC1", "RP-LC retention time": 740}, {"compound": "Cc1ccccc1CNC(=O)C1(C)CCN(S(=O)(=O)c2ccc(Br)cc2)CC1", "RP-LC retention time": 1030}, {"compound": "O=C(NCc1ccco1)C1CCN(S(=O)(=O)c2cc(-c3noc(C4CCC4)n3)cs2)CC1", "RP-LC retention time": 917}, {"compound": "CCN1C(=O)COc2ccc(-c3noc(C4CCCN(S(=O)(=O)c5ccc(C)cc5)C4)n3)cc21", "note": "(stereo not given)", "RP-LC retention time": 1100}, {"compound": "O=C(NC1CCCCC1)C1CCCN(c2ccnc(-c3ccc(F)cc3)n2)C1", "note": "(stereo not given)", "RP-LC retention time": 695}, {"compound": "CCCn1ccc2sc(C)c(C(=O)NCc3ccc(F)cc3F)c2c1=O", "RP-LC retention time": 925}, {"compound": "Cc1nc(-c2csc(S(=O)(=O)N3CCC(C(=O)Nc4ccc(F)cc4F)CC3)c2)no1", "RP-LC retention time": 920}, {"compound": "O=C(O)c1cn(CCc2ccccc2)nc1S(=O)(=O)N1CCSCC1", "RP-LC retention time": 838}, {"compound": "CCOc1ccc(-c2[nH]nc3nc(-c4ccc(OC)cc4)cc(C(=O)O)c23)cc1", "RP-LC retention time": 654}, {"compound": "O=C(Cn1c(C(F)(F)F)nc2ccccc21)NCc1ccc2c(c1)OCCCO2", "RP-LC retention time": 804}, {"compound": "CCOC(=O)c1c(C)n(CCNC(C)=O)c2cc(Br)c(OC)cc12", "RP-LC retention time": 706}, {"compound": "CCCn1c(=O)c(C)nc2cc(-c3noc(-c4ccccc4F)n3)ccc21", "RP-LC retention time": 1130}, {"compound": "O=C(c1ccc([N+](=O)[O-])cc1)N(C(=O)N1CCCCC1)c1cccc(Cl)c1", "RP-LC retention time": 953}, {"compound": "COc1cc(CNc2nnc(-c3nnc(C4CC4)o3)c3ccccc23)cc(OC)c1", "RP-LC retention time": 878}, {"compound": "O=C(NCC1CCCCC1)C1CCN(c2nnc3ccccn23)CC1", "RP-LC retention time": 628}]}]}
